Test results as given in US11591341B2 (ALIGOS THERAPEUTICS, INC., priority 2019, dated 2023).
Like-named read-outs stand apart in the source and are kept apart here.

System: HBV
Test: HBV-DNA Antiviral Assay Using HepG2.117 Cells (intracellular HBV DNA by qPCR)
Type: cell-based, hepatitis B virus (genotype D)
Experimental: The following assay procedure describes the HBV antiviral assay, using HepG2.117 cells, which carry a stably integrated genotype D HBV genome under the control of a Tet-off promoter, and intracellular HBV DNA quantification as endpoint. Cell viability is assessed in parallel by measuring the intracellular ATP content using ATPlite (Perkin Elmer).
On day 0, HepG2.117 cells (which are maintained in routine cell culture with doxycycline present in the medium at a final concentration of 1 μg/mL) were seeded in 96-well plates (white with clear bottom) at a density of 2.0×10^4 cells/well (0.1 mL/well) in medium without doxycycline to induce pgRNA transcription and subsequent formation of HBV particles. The cells were incubated at 37° C. and 5% CO2.
On day 1, medium was removed from each well, the test articles were diluted in culture medium without doxcycyline and 100 μL was added to cell culture wells (9 concentrations, 4-fold dilution). For each plate, 6 untreated (merely DMSO) wells were included. The final concentration of DMSO in the culture medium was 2%. Each plate was prepared in duplicate (one for HBV DNA extraction, one for ATPlite measurement). The cells were incubated at 37° C. and 5% CO2 for 3 days.
On day 4, cell viability was assessed using ATPlite and cell lysates were prepared for HBV DNA extraction and subsequent quantification by qPCR.
Medium was removed from each well and 100 μL of 0.33% NP-40 in H2O was added to each well. Plates were sealed, incubated at 4° C. for 5 mins, vortexed extensively and centrifuged briefly. Next, 35 μL of lysate was added to 65 μL QuickExtract DNA Extraction Solution (Epicentre) in a PCR plate for each well. PCR plate was incubated at 65° C. for 6 mins, 98° C. for 2 mins and finally cooled to 4° C. HBV DNA was then quantified by qPCR with HBV-specific primers and probes as specified in Table 3 using the Bio-Rad SSOAdvanced Universal Probes Supermix on a CFX96 machine (Bio-Rad). The PCR cycle program consisted of 95° C. for 3 mins, followed by 40 cycles at 95° C. for 10 sec and 60° C. for 30 sec.
A DNA standard was prepared by dilution of an IDT gBlock corresponding to the amplicon with concentrations ranging from 10^2 to 10^8 copies/input (i.e. per 4 μL) and used to generate a standard curve by plotting Cq values vs. HBV DNA standard concentration. The quantity of HBV DNA in each sample was determined by interpolating from the standard curve.
Cell viability was calculated as follows: % Cell viability=(luminescence value of test sample)/(average luminescence value of 2% DMSO control)×100%. HBV DNA inhibition was calculated as follows: 100−(HBV DNA copy number of test sample)/(average HBV DNA copy number of 2% DMSO control)×100%. No normalization to entecavir was required due to the excellent dynamic window of this assay. The CC50, EC50 and EC90 values were determined by dose-response curves fitted by GraphPad Prism using “log (agonist) vs. response—Variable slope”.

| Structure (SMILES) | EC50 (Hepatitis B virus, HepG2.117) [nM] | EC50 (HBV DNA inhibition, HepG2.117 cells, intracellular HBV DNA by qPCR (Table 4), read-out: EC50) [nM] |
| --- | --- | --- |
| CC(C)Oc1ccc(-n2c(C(=O)NCc3ccccc3)c3n(c2=O)CCN(C(=O)/C=C/c2ccc(Cl)c(Cl)c2)C3)cc1 [Example 242, N-benzyl-7-[(E)-3-(3,4-dichlorophenyl)prop-2-enoyl]-2-(4-isopropoxyphenyl)-3-oxo-6,8-dihydro-5H-imidazo[1,5-a]pyrazine-1-carboxamide] | > 5000 |  |
| O=C(NCc1ccccc1)c1c2n(c(=O)n1-c1ccccc1)CCN(C(=O)c1ccc(Cl)c(Cl)c1)C2 [Example 34, N-benzyl-7-(3,4-dichlorobenzoyl)-3-oxo-2-phenyl-6,8-dihydro-5H-imidazo[1,5-a]pyrazine-1-carboxamide] | 500 to 5000 |  |
| O=C(NCc1ccccc1-c1cnccn1)c1c2n(c(=O)n1-c1ccc(OC3CC3)cc1)CCN(C(=O)c1ccc(Br)c(Cl)c1)C2 [Example 401, 7-(4-bromo-3-chloro-benzoyl)-2-[4-(cyclopropoxy)phenyl]-3-oxo-N-[(2-pyrazin-2-ylphenyl)methyl]-6,8-dihydro-5H-imidazo[1,5-a]pyrazine-1-carboxamide] | < 100 |  |
| Cn1cnc2c(CNC(=O)c3c4n(c(=O)n3-c3ccc(OCC(F)(F)F)cc3)CCN(C(=O)c3ccc(Br)c(Cl)c3)C4)cccc21 [Example 400, 7-(4-bromo-3-chloro-benzoyl)-N-[(1-methylbenzimidazol-4-yl)methyl]-3-oxo-2-[4-(2,2,2-trifluoroethoxy)phenyl]-6,8-dihydro-5H-imidazo[1,5-a]pyrazine-1-carboxamide] | 100 to 500 |  |
| CC(C)Oc1ccc(-n2c(-c3ncc(Cc4ccccc4)s3)c3n(c2=O)CCN(C(=O)c2ccc(Br)c(Cl)c2)C3)cc1 [Example 325, 1-(5-benzylthiazol-2-yl)-7-(4-bromo-3-chlorobenzoyl)-2-(4-isopropoxyphenyl)-5,6,7,8-tetrahydroimidazo[1,5-a]pyrazin-3(2H)-one] | > 5000 |  |
| CC(C)(Oc1ccc(-n2c(C(=O)NCc3ccccc3)c3n(c2=O)CCN(C(=O)c2ccc(Br)c(Cl)c2)C3)cc1)C(F)(F)F [Example 393, N-benzyl-7-(4-bromo-3-chloro-benzoyl)-3-oxo-2-[4-(2,2,2-trifluoro-1,1-dimethyl-ethoxy)phenyl]-6,8-dihydro-5H-imidazo[1,5-a]pyrazine-1-carboxamide] | 500 to 5000 |  |
| CC(C)Oc1ccc(-n2c(C(=O)NCc3ccc(S(C)(=O)=O)cc3)c3n(c2=O)CCN(C(=O)c2ccc(Br)c(Cl)c2)C3)cc1 [Example 227, 7-(4-bromo-3-chloro-benzoyl)-2-(4-isopropoxypehnyl)-N-[(4-methylsulfonylphenyl)methyl]-3-oxo-6,8-dihydro-5H-imidazo[1,5-a]pyrazine-1-carboxamide] | 500 to 5000 |  |
| C[C@@H](NC(=O)c1c2n(c(=O)n1-c1ccc(OCC(F)(F)F)cc1)CCN(C(=O)c1ccc(Br)c(Cl)c1)C2)c1ccc(OC(C)(C)C(N)=O)cc1F (stereo in doubt) [Example 337, 7-(4-bromo-3-chloro-benzoyl)-3-oxo-N-[rac-(1R)-1-[4-(2-amino-1,1-dimethyl-2-oxo-ethoxy)-2-fluoro-phenyl]ethyl]-2-[4-(2,2,2-trifluoroethoxy)phenyl]-6,8-dihydro-5H-imidazo[1,5-a]pyrazine-1-carboxamide] | 100 to 500 |  |
| C[C@H](NC(=O)c1c2n(c(=O)n1-c1ccc(OC3CC3)cc1)CCN(C(=O)c1ccc(Br)c(Cl)c1)C2)c1ccc(OC2COC2)cc1F (stereo in doubt) [Example 347, 7-(4-bromo-3-chloro-benzoyl)-2-[4-(cyclopropoxy)phenyl]-3-oxo-N-[rac-(1S)-1-[2-fluoro-4-(oxetan-3-yloxy)phenyl]ethyl]-6,8-dihydro-5H-imidazo[1,5-a]pyrazine-1-carboxamide] | 100 to 500 |  |
| CC[C@H](NC(=O)c1c2n(c(=O)n1-c1ccc(OC)cc1)CCN(C(=O)c1ccc(Br)c(Cl)c1)C2)c1ccccc1 (stereo in doubt) [Example 151, 7-(4-bromo-3-chloro-benzoyl)-2-(4-methoxyphenyl)-3-oxo-N-[rac-(1S)-1-phenylpropyl]-6,8-dihydro-5H-imidazo[1,5-a]pyrazine-1-carboxamide] | 100 to 500 |  |
| O=C(NCc1ccccc1)c1c2n(c(=O)n1-c1ccc(OC3CC(F)(F)C3)cc1)CCN(C(=O)c1ccc(Br)c(Cl)c1)C2 [Example 350, N-benzyl-7-(4-bromo-3-chloro-benzoyl)-2-[4-(3,3-difluorocyclobutoxy)phenyl]-3-oxo-6,8-dihydro-5H-imidazo[1,5-a]pyrazine-1-carboxamide] | 500 to 5000 |  |
| O=C(NCc1ccccc1)c1c2n(c(=O)n1-c1ccc(N3CCO[C@H](C(F)(F)F)C3)cc1)CCN(C(=O)c1ccc(Br)c(Cl)c1)C2 (racemic) [Example 417, N-benzyl-7-(4-bromo-3-chloro-benozyl)-3-oxo-2-[4-[rac-(2S)-2-(trifluoromethyl)morpholin-4-yl]phenyl]-6,8-dihydro-5H-imidazo[1,5-a]pyrazine-1-carboxamide] | 100 to 500 |  |
| C[C@@H](NC(=O)c1c2n(c(=O)n1-c1ccc(OCC(F)(F)F)cc1)CCN(C(=O)c1ccc(Br)c(Cl)c1)C2)c1cccc2nccnc12 (stereo in doubt) [Example 385, 7-(4-bromo-3-chloro-benzoyl)-3-oxo-N-[rac-(1R)-1-quinoxalin-5-ylethyl]-2-[4-(2,2,2-trifluoroethoxy)phenyl]-6,8-dihydro-5H-imidazo[1,5-a]pyrazine-1-carboxamide] | 100 to 500 |  |
| C[C@H](NC(=O)c1c2n(c(=O)n1-c1ccc(OC3CC3)cc1)CCN(C(=O)c1ccc(Br)c(Cl)c1)C2)c1ccccc1 (racemic) [Example 168, 7-(4-bromo-3-chloro-benzoy)-2-[4-(cyclopropoxy)phenyl]-3-oxo-N-[rac-(1S)-1-phenylethyl]-6,8-dihydro-5H-imidazo[1,5-a]pyrazine-1-carboxamide] | 100 to 500 |  |
| COc1ccc(-n2c(C(=O)NCc3ccc(OC(F)(F)F)cc3)c3n(c2=O)CCN(C(=O)c2ccc(Br)c(Cl)c2)C3)cc1 [Example 158, 7-(4-bromo-3-chloro-benzoyl)-2-(4-methoxyphenyl)-3-oxo-N-[[4-(trifluoromethoxy)phenyl]methyl]-6,8-dihydro-5H-imidazo[1,5-a]pyrazine-1-carboxamide] | 100 to 500 |  |
| O=C(NCc1ccccc1-c1cccnn1)c1c2n(c(=O)n1-c1ccc(OC3CC3)cc1)CCN(C(=O)c1ccc(Br)c(Cl)c1)C2 [Example 387, 7-(4-bromo-3-chloro-benozyl)-2-[4-(cyclopropoxy)phenyl]-3-oxo-N-[(2-pyridazin-3-ylphenyl)methyl]-6,8-dihydro-5H-imidazo[1,5-a]pyrazine-1-carboxamide] | < 100 |  |
| COc1ccc(-n2c(-c3ncccc3Cc3ccccc3)c3n(c2=O)CCN(C(=O)c2ccc(Br)c(Cl)c2)C3)cc1 [Example 308, 1-(3-benzyl-2-pyridyl)-7-(4-bromo-3-chloro-benzoyl)-2-(4-methoxyphenyl)-6,8-dihdyro-5H-imidazo[1,5-a]pyrazin-3-one] |  | 500 to 5000 |
| COc1ccc(-n2c(C(=O)N[C@H](C)c3ccccc3F)c3n(c2=O)CCN(C(=O)c2ccc(Br)c(Cl)c2)C3)cc1 (stereo in doubt) [Example 161, 7-(4-bromo-3-chloro-benzoyl)-2-(4-methoxyphenyl)-3-oxo-N-[rac-(1R)-1-(2-fluorophenyl)ethyl]-6,8-dihydro-5H-imidazo[1,5-a]pyrazine-1-carboxamide] | < 100 |  |
| CC(C)Oc1ccc(-n2c(C(=O)N[C@@H](C)c3ccccc3)c3n(c2=O)CCN(C(=O)c2ccc(Cl)c(Cl)c2)C3)cc1 (stereo in doubt) [Example 129, 7-(3,4-dichlorobenzoyl)-2-(4-isopropoxyphenyl)-3-oxo-N-[rac-(1S)-1-phenylethyl]-6,8-dihydro-5H-imidazo[1,5-a]pyrazine-1-carboxamide] | 500 to 5000 |  |
| C[C@H](NC(=O)c1c2n(c(=O)n1-c1ccc(OC3CC3)cc1)CCN(C(=O)c1ccc(Br)c(Cl)c1)C2)c1ccc(OCC#N)cc1F (stereo in doubt) [Example 343, 7-(4-bromo-3-chloro-benzoyl)-2-[4-(cyclopropoxy)phenyl]-3-oxo-N-[rac-(1S)-1-[4-(cyanomethoxy)-2-fluoro-phenyl]ethyl]-6,8-dihydro-5H-imidazo[1,5-a]pyrazine-1-carboxamide] | 100 to 500 |  |
